ChEMBL document CHEMBL5550215, “Discovery of Novel Imidazo[1,2-a]pyridine-Based HDAC6 Inhibitors as an Anticarcinogen with a Cardioprotective Effect” (J Med Chem, 2024)
pIC50: −log10 of the molar value. Activity calls are given as the source filed them. The rule behind the calls is not given here.

What was measured:
[1] = system: H9c2; assay: Protection against H2O2 induced myocardial cell injury in rat H9c2 cells at 10 uM pretreated for 24 hrs followed by H2O2 exposure and measured after 1.5 hrs (reference value: 17.91 to 57.32%); assay type: functional; settings: time 25.5 hrs
[2] = system: H9c2; assay: Protection against H2O2 induced myocardial cell injury in rat H9c2 cells assessed as fold change at 10 uM pretreated for 24 hrs followed by H2O2 exposure and measured after 1.5 hrs relative to H2O2 alone; assay type: functional; settings: time 25.5 hrs
[3] = system: TE-1; assay: Antiproliferative activity against human TE-1 cells assessed as inhibition of cell growth by MTT assay
[4] = system: Mus musculus; assay: Cardioprotective activity against myocardial ischemia/reperfusion induced C57BL/6J mouse model assessed as reduction in ST-segment elevation at 10 mg/kg; assay type: functional, organism-based
[5] = system: Mus musculus; assay: Cardioprotective activity against myocardial ischemia/reperfusion induced C57BL/6J mouse model assessed as effect on infarct size of mouse heart at 10 mg/kg by TTC staining based analysis; assay type: functional, organism-based
[6] = system: MGC-803; assay: Antiproliferative activity against human MGC-803 cells assessed as inhibition of cell growth by MTT assay
[7] = system: HCT-116; assay: Antiproliferative activity against human HCT-116 cells assessed as inhibition of cell growth by MTT assay
[8] = system: PANC-1; assay: Antiproliferative activity against human PANC-1 cells assessed as inhibition of cell growth by MTT assay
[9] = system: SMMC-7721; assay: Antiproliferative activity against human SMMC-7721 cells assessed as inhibition of cell growth by MTT assay
[10] = system: NCI-H460; assay: Antiproliferative activity against human NCI-H460 cells assessed as inhibition of cell growth by MTT assay
[11] = system: PC-3; assay: Antiproliferative activity against human PC-3 cells assessed as inhibition of cell growth by MTT assay
[12] = system: H9c2; assay: Protection against H2O2 induced myocardial cell injury in rat H9c2 cells at 5 uM pretreated for 24 hrs followed by H2O2 exposure and measured after 1.5 hrs (reference value: 41.79+/-1.59%); assay type: functional; settings: time 25.5 hrs

SMILES	Activity [1]	fold change (FC) [2]	other results
Cc1ccc(-c2cc(CNc3ccc(C(=O)N4CCOCC4)cc3)c3nccn3c2)cc1	62.08%	2.05	
O=C(NO)c1ccc(NC(=O)c2cc(-c3ccc(F)cc3)cn3ccnc23)cc1	74.82%	2.11	
COc1cc(-c2cc(C(=O)NCCN3CCN(C(=O)OC(C)(C)C)CC3)c3nccn3c2)cc(OC)c1OC	49.54%	1.1	
O=C(NO)c1ccc(CNc2cc(-c3cccc(F)c3)cn3ccnc23)cc1	72.58%	1.5	
COc1ccccc1CNC(=O)c1ccc(NCc2cc(-c3ccc(C)cc3)cn3ccnc23)cc1	56.7%	1.88	
CCc1ccc(-c2cc(CNc3ccc(C(=O)NO)cc3)c3nccn3c2)cc1	63.8%	1.73	
Cc1cccc(-c2cc(CNc3ccc(C(=O)NO)cc3)c3nccn3c2)c1	50.3%	1.36	
Cc1cccc(-c2cc(C(=O)Nc3ccc(C(=O)NO)cc3)c3nccn3c2)c1	78.26%	2.19	
Cc1ccccc1-c1cc(CNc2ccc(C(=O)NO)cc2)c2nccn2c1	67.73%	1.38	
Cc1ccc(-c2cc(CNc3ccc(C(=O)Nc4ccccc4N)cc3)c3nccn3c2)cc1	21.76%	1.21	
COc1ccccc1NC(=O)c1ccc(NCc2cc(-c3ccc(C)cc3)cn3ccnc23)cc1	48.69%	1.61	
CC(C)c1ccc(-c2cc(CNc3ccc(C(=O)NO)cc3)c3nccn3c2)cc1	54.12%	1.47	
Cc1ccc(-c2cc(CNc3ccc(C(=O)NNc4ccccc4)cc3)c3nccn3c2)cc1	64.68%	2.14	
O=C(CCCCCCC(=O)Nc1ccccc1)NO [VORINOSTAT]	71.54%		pIC50 [3]: 5.65; Activity [4]: Active; Activity [5]: inactive
O=C(NO)c1ccc(NCc2cc(-c3cccc(F)c3)cn3ccnc23)cc1	53.76%	1.46	
Cc1ccc(-c2cc(CNc3ccc(C(=O)NO)cc3C)c3nccn3c2)cc1	53.88%	1.51	
CCc1ccccc1-c1cc(CNc2ccc(C(=O)NO)cc2)c2nccn2c1	50.13%	2.01	
COc1cc(-c2cc(C(=O)N3CCOCC3)c3nccn3c2)cc(OC)c1OC	34.81%	0.73	
COc1ccc(-c2cc(CNc3ccc(C(=O)NO)cc3)c3nccn3c2)c(OC)c1	56.04%	1.52	
COc1cc(-c2cc(C(=O)NCCN3CCOCC3)c3nccn3c2)cc(OC)c1OC	36.19%	0.63	
COc1cc(-c2cc(C(=O)NCCN3CCN(C(=O)OC(C)(C)C)CC3)c3ccccc3n2)cc(OC)c1OC	53.37%	1.19	
Cc1ccc(-c2cc(CNc3ccc(C(=O)NNc4ccccc4F)cc3)c3nccn3c2)cc1	35.98%	1.19	
Cc1ccccc1-c1cc(NCc2ccc(C(=O)NO)cc2)c2nccn2c1	67.83%	1.4	
Cc1ccc(-c2cc(CNc3ccc(C(=O)NNC(C)C)cc3)c3nccn3c2)cc1	54.92%	1.82	
Cc1ccc(-c2cc(CNc3ccc(C(=O)NNC(=O)OC(C)(C)C)cc3)c3nccn3c2)cc1	64.23%	2.12	
COc1ccccc1-c1cc(CNc2ccc(C(=O)NO)cc2)c2nccn2c1	67.63%	1.9	

SMILES	Activity [1]	fold change (FC) [2]	other results
COc1ccc(-c2cc(CNc3ccc(C(=O)NO)cc3)c3nccn3c2)cc1	57.47%	1.56	
Cc1ccc(-c2cc(C(=O)Nc3ccc(C(=O)NO)cc3)c3nccn3c2)cc1	65.82%	1.84	
O=C(NO)c1ccc(CNc2cc(-c3ccccc3F)cn3ccnc23)cc1	54.74%	1.13	
O=C(NO)c1ccc(NCc2cc(-c3cccs3)cn3ccnc23)cc1	68.84%	1.87	
Cc1ccc(-c2cc(CNc3ccc(C(=O)NO)cc3Cl)c3nccn3c2)cc1	108.57%	2.79	
Cc1ccc(-c2cc(CNc3ccc(C(=O)NO)cn3)c3nccn3c2)cc1	58.82%	1.27	
Cc1ccc(-c2cc(CNc3ccc(C(=O)O)cc3)c3nccn3c2)cc1	18.02%	1.01	
Cc1cccc(-c2cc(C(=O)NCc3ccc(C(=O)NO)cc3)c3nccn3c2)c1	74.81%		pIC50 [6]: 5.46; pIC50 [7]: 5.24; pIC50 [8]: < 5.00; pIC50 [3]: 5.56; pIC50 [9]: 5.70; pIC50 [10]: < 5.00; pIC50 [11]: < 5.00
O=C(NO)c1ccc(NCc2cc(-c3ccc(F)cc3)cn3ccnc23)cc1	66.3%	1.86	
Cc1ccc(-c2cc(CNc3ccc(C(=O)NO)cc3F)c3nccn3c2)cc1	52.82%	1.36	
O=C(NO)c1ccc(NCc2cc(-c3cccc(Br)c3)cn3ccnc23)cc1	98.49%		pIC50 [6]: 5.29; pIC50 [7]: < 5.00; pIC50 [8]: < 5.00; pIC50 [3]: 5.21; pIC50 [9]: 5.50; pIC50 [10]: 5.03; pIC50 [11]: < 5.00
Cc1ccc(-c2cc(CNc3ccc(C(=O)NO)cc3)c3nccn3c2)cc1	68.72%	1.93	
Cc1ccccc1-c1cc(C(=O)NCc2ccc(C(=O)NO)cc2)c2nccn2c1	63.03%		pIC50 [6]: 5.88; pIC50 [7]: 5.02; pIC50 [8]: < 5.00; pIC50 [3]: 5.59; pIC50 [9]: 5.59; pIC50 [10]: 5.06; pIC50 [11]: < 5.00
COc1cc(-c2cc(C(=O)NCc3ccccc3)c3nccn3c2)cc(OC)c1OC	56.67%	0.99	
O=C(NO)c1ccc(CNc2cc(-c3ccc(F)cc3)cn3ccnc23)cc1	90.19%	1.86	
O=C(NO)c1ccc(NCc2cc(-c3cccc(Cl)c3)cn3ccnc23)cc1	73.84%		pIC50 [6]: 5.42; pIC50 [7]: < 5.00; pIC50 [8]: < 5.00; pIC50 [3]: < 5.00; pIC50 [9]: 5.52; pIC50 [10]: < 5.00; pIC50 [11]: < 5.00
Cc1ccc(-c2cc(CNc3ccc(C(=O)NOC4CCCCO4)cc3)c3nccn3c2)cc1 (configuration not stated)	59.02%	1.69	
Cc1ccc(-c2cc(CNc3ccc(C(=O)NNC(C)(C)C)cc3)c3nccn3c2)cc1	65.75%	2.17	
O=C(NO)c1ccc(NCc2cc(-c3ccccc3F)cn3ccnc23)cc1	57.23%	1.55	
Cc1cccc(-c2cc(NCc3ccc(C(=O)NO)cc3)c3nccn3c2)c1	49.08%	1.01	
O=C(NO)c1ccc(NCc2cc(-c3ccccc3Cl)cn3ccnc23)cc1	57.08%	1.6	
Cc1ccccc1-c1cc(C(=O)Nc2ccc(C(=O)NO)cc2)c2nccn2c1	56.16%	1.57	
Cc1ccc(-c2cc(CNc3ccc(C(=O)NN)cc3)c3nccn3c2)cc1	85.94%	2.63	
Cc1ccc(-c2cc(C(=O)NCc3ccc(C(=O)NO)cc3)c3nccn3c2)cc1	84.83%		Activity [12]: 83.58%; pIC50 [6]: 5.93; pIC50 [7]: < 5.00; pIC50 [8]: 5.21; pIC50 [3]: 5.26; pIC50 [9]: 5.73; pIC50 [10]: < 5.00; pIC50 [11]: < 5.00
COc1cc(-c2cc(C(=O)Nc3ccccc3)c3nccn3c2)cc(OC)c1OC	61.69%	1.23	
Cc1ccc(-c2cc(NCc3ccc(C(=O)NO)cc3)c3nccn3c2)cc1	74.15%	2.08	
